Measured values published in US20110251220A1, “Pharmaceutical compositions comprising gamma secretase modulators” (priority 2008, published 2011).

Key:
OPM-2 cells [1] = test: Apoptosis by AnnexinV-FITC/PI staining, OPM-2; format: cell-based, human
Method: (§1) The compound according to example 1, hereinafter referred to as GSI15, (compound RH02015SC, Maybridge, Acros Organics, Geel, Belgium) was freshly dissolved as 26 mM stock solution in Dimethylsulfoxide (DMSO). Multiple myeloma therapeutics used were melphalan (marketed as Alkeran®, GlaxoSmithKline, Munich, Germany) and bortezomib (marketed as Velcade®, Janssen-Cilag, Neuss, Germany). Melphalan was freshly dissolved at 10 mg/ml in 0.9% NaCl-solution. Bortezomib was freshly dissolved at 100 ng/ml in 0.9% NaCl solution. Gamma Secretase Inhibitor (GSI) treatment for apoptosis assessment by AnnexinV/PI staining, cell cycle analysis and coculture experiments was performed in 6-well plates. GSI15 stock solution was added directly to the cell suspension. GSI treatment for assaying proliferation was performed in 96-well plates. 10,000 cells per well were seeded in 50 μl medium per well before 50 μl of a 2× solution of GSI15 prediluted in medium were added per well. Melphalan and bortezomib treatment as well as their combination with GSI15 for assaying apoptosis by AnnexinV/PI staining was done in 6-well plates. All inhibitors were added directly to the cells in 6-well plates.
For cell cycle analysis 2×10^5 cells were spun down, medium was aspirated and cells washed with PBS. Cells were then resuspended in 250 μl PBS. 1 ml ice-cold 70% ethanol was added, followed by overnight incubation at −20° C. Cells were spun down, the pellet washed with PBS and then resuspended in 200 μl PBS containing 0.15 mg/ml RNaseA and 30 μg/ml propidium iodide (PI). After 10 minutes incubation in the dark at room temperature, cells were analyzed by flow cytometry. The amount of apoptotic cells was determined by AnnexinV/propidium iodide staining using Human AnnexinV-FITC Kit (Bender Medsystems, Vienna, Austria), according to manufacturer's protocol. Briefly, 2×10^5 cells were spun down and washed with PBS, followed by 10 minutes incubation in binding buffer containing AnnexinV-FITC conjugate. Cells were then spun down again, resuspended in binding buffer containing PI and analyzed by flow cytometry.

U266 cells = test: Cell cycle analysis (propidium iodide), U266; format: cell-based, human
Method: as §1, with “10,000 cells per well were seeded in 50 μl medium per well before 50 μl of a 2× solution of GSI15 prediluted in medium were added per well. Melphalan and bortezomib treatment as well as their combination with GSI15 for assaying apoptosis by AnnexinV/PI staining was done in 6-well plates. All inhibitors were added directly to the cells in 6-well plates.” left out
For cell cycle analysis 2×10^5 cells were spun down, medium was aspirated and cells washed with PBS. […] After 10 minutes incubation in the dark at room temperature, cells were analyzed by flow cytometry. The amount of apoptotic cells was determined by AnnexinV/propidium iodide staining using Human AnnexinV-FITC Kit (Bender Medsystems, Vienna, Austria), according to manufacturer's protocol. […] Cells were then spun down again, resuspended in binding buffer containing PI and analyzed by flow cytometry.

OPM-2 cells [2] = test: Proliferation/viability assay (CellTiter-Glo), OPM-2; format: cell-based, human; conditions: OPM-2, 48 h treatment
Method: Human MM cell lines used were as follows: NCI-H929, OPM-2, LP-1, RPMI-8226, U266 (DSMZ, Braunschweig, Germany). Cell lines were cultured in RPMI 1640 medium (Biochrom, Berlin, Germany) supplemented with 10% heat-inactivated fetal calf serum (FCS, Gibco, Karlsruhe, Germany), 1 mM sodium pyruvate and 100 units/ml penicillin and 100 μg/ml streptomycin (Gibco). Human osteoclasts were obtained as described in the reference of Zavrski I, Krebbel H, Wildemann B, et al. Proteasome inhibitors abrogate osteoclast differentiation and osteoclast function. Biochem Biophys Res Commun. 2005; 333:200-205. Briefly, peripheral blood mononuclear cells (PBMC) were isolated from whole blood of healthy volunteers, using a Ficoll-Hypaque density gradient. The adherent fraction of the isolated mononuclear cells was cultured for 21 days in MEM medium (Sigma-Aldrich Chemie, Taufkirchen, Germany) supplemented with 10% FCS, 100 U/ml penicillin, 100 μg/ml streptomycin, 50 ng/ml M-CSF, and 25 ng/ml RANKL (osteoclastogenic medium), before coculture experiments and treatment with the inventive compounds started. […]
For assaying proliferation/viability of cells CellTiter-Glo Luminescent Cell Viability Assay (Promega, Mannheim, Germany) was used. In this assay the number of viable cells at a given time point is determined by quantification of ATP present, which serves as a measure of metabolically active cells. […]

male Sprague-Dawley rats = test: PAN-model of albuminuric glomerular disease; format: in vivo, rat; conditions: day 7, 500 μg/100 g rat i.p. once per day, compared to PAN alone
Method: For the in vivo studies male Sprague-Dawley rats were purchased from Charles River and treated with puromycin aminoglycoside (PAN) to induce albuminuric glomerular disease as described previously (Niranjan et al., “The Notch pathway in podocytes plays a role in the development of glomerular disease.” Nat. Med. 14: 290-298, 2008). Rats were injected PAN (150 mg/kg) once. The test compounds were administered intraperitoneally (500 μg/100 g rat) once per day (n=4 animals per group). Injection of test compounds were started one day after PAN injection. All studies were performed in accordance with the European Union normative. As a positive control one group of rats received gamma secretase inhibitor DAPT.
Urinary albumine was measured at the indicated days as described previously (Sanchez-Nino et al., “The MIF receptor CD74 in diabetic podocyte injury”. J. Am. Soc. Nephrol. 20: 353-362, 2009). For total protein measurement urine samples were centrifuged and pellets were diluted in distilled water. Exton reagent (230 mM sulfosalic acid, 1.4 M sodium sulfate) was added and after 10 minutes absorbance was measured at 620 nm.

CC(C)c1ccc(S(=O)(=O)Nc2cccnc2Oc2ccc(Cl)cc2)cc1 [Example 1, N-(2-(4-chlorophenoxy)pyridin-3-yl)-4-isopropylbenzenesulfonamide]
apoptosis induction (OPM-2 cells [1]; OPM-2, 40 μM GSI15 alone, 24 h): did not induce apoptosis
AnnexinV-FITC/PI staining (OPM-2 cells [1]; OPM-2, 48 h of treatment): decrease of OPM-2 cells negative for both Annexin V-FITC- and PI-staining
overall amount of apoptotic cells (OPM-2 cells [1]; OPM-2 alone, 60 μM GSI15, 48 h): 29%
sub-G1 fraction / cell cycle (U266 cells): no change was detected
concentration of maximum effect on proliferation (OPM-2 cells [2]): 60 µM
proliferation (OPM-2 cells [2]): dose-dependent reduction of proliferation
inhibition of albuminuria (male Sprague-Dawley rats): 56%
inhibition of proteinuria (male Sprague-Dawley rats): 50%
